Measured values reported in ChEMBL document CHEMBL4265921, “Novel bisphosphonates with antiresorptive effect in bone mineralization and osteoclastogenesis” (Eur J Med Chem, 2018).
Calls of active or inactive are those of the source. The calls are words filed in the database; no cut-off is given here.

Key:
[1] = system: Bone marrow cell; experiment: Induction of mineralization in C57BL mouse bone marrow cells at 50 nM supplemented with fresh medium containing compound every 3 days for 10 to 15 days by alizarin red dye based assay; type: functional
[2] = system: J774.A1; experiment: Antiproliferative activity against mouse J774A.1 cells assessed as reduction in cell proliferation at 500 uM after 72 hrs by crystal violet staining based assay; type: functional
[3] = system: RAW264.7; experiment: Inhibition of RANKL-induced osteoclastogenesis in mouse RAW264.7 cells after 72 hrs by TRAP staining based microscopic analysis; type: functional, cell-based
[4] = system: MG-63; experiment: Antiproliferative activity against human MG63 cells assessed as reduction in cell proliferation at 500 uM after 72 hrs by crystal violet staining based assay; type: functional
[5] = system: Bone marrow cell; experiment: Induction of mineralization in C57BL mouse bone marrow cells co-cultured with human PC3 cells at 50 to 100 nM supplemented with fresh medium containing compound every 3 days for 10 to 15 days by alizarin red dye based assay; type: functional
[6] = system: PC-3; experiment: Antiproliferative activity against human PC3 cells assessed as change in cell proliferation at 100 uM after 72 hrs by crystal violet staining based assay relative to control; type: functional
[7] = system: RAW264.7; experiment: Antiproliferative activity against mouse RAW264.7 cells assessed as reduction in cell viability at 100 uM after 72 hrs by WST8 assay; type: functional, cell-based
[8] = system: Bone marrow cell; experiment: Induction of mineralization in C57BL mouse bone marrow cells co-cultured with human PC3 cells at >100 nM supplemented with fresh medium containing compound every 3 days for 10 to 15 days by alizarin red dye based assay; type: functional
[9] = system: MG-63; experiment: Antiproliferative activity against human MG63 cells assessed as change in cell proliferation at 100 uM after 72 hrs by crystal violet staining based assay relative to control; type: functional
[10] = system: Bone marrow cell; experiment: Induction of mineralization in C57BL mouse bone marrow cells at >50 nM supplemented with fresh medium containing compound every 3 days for 10 to 15 days by alizarin red dye based assay; type: functional
[11] = system: PC-3; experiment: Antiproliferative activity against human PC3 cells assessed as reduction in cell viability at 100 uM after 72 hrs by WST8 assay; type: functional, cell-based
[12] = system: J774.A1; experiment: Antiproliferative activity against mouse J774A.1 cells assessed as reduction in cell viability at 100 uM after 72 hrs by WST8 assay; type: functional, cell-based
[13] = system: MG-63; experiment: Antiproliferative activity against human MG63 cells assessed as reduction in cell viability at 100 uM after 72 hrs by WST8 assay; type: functional, cell-based
[14] = system: PC-3; experiment: Antiproliferative activity against human PC3 cells assessed as reduction in cell proliferation at 500 uM after 72 hrs by crystal violet staining based assay; type: functional
[15] = molecular target: T1, Farnesyl pyrophosphate synthase (Homo sapiens) (UniProt P14324); experiment: Inhibition of recombinant human C-terminal His6-tagged FPPS expressed in Escherichia coli BL21 at 1 to 10 uM using DMAPP and IPP as substrates pretreated for 15 mins followed by substrates addition and measured after 1 hr by colorimetric method relative to control
T1 sequence (whole entry): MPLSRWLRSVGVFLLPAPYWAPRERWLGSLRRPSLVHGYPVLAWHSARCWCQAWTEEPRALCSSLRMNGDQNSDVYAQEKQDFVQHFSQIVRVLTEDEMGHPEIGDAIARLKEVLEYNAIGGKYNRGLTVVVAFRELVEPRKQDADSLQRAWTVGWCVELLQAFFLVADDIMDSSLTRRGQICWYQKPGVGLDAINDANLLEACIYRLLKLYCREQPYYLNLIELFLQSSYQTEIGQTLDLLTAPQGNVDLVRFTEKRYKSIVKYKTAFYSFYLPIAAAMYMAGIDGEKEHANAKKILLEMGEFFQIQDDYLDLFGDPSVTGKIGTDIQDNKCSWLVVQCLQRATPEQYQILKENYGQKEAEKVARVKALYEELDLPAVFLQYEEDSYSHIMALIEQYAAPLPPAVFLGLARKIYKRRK

[16] = system: Hydroxyapatite; experiment: Binding affinity to hydroxyapatite at 100 uM using sodium salt form of compound after 5 mins by ESI/MS analysis
[17] = molecular target: T1, Farnesyl pyrophosphate synthase (Homo sapiens); experiment: Inhibition of recombinant human C-terminal His6-tagged FPPS expressed in Escherichia coli BL21 at 100 uM using DMAPP and IPP as substrates pretreated for 15 mins followed by substrates addition and measured after 1 hr by colorimetric method relative to control
[18] = system: RAW264.7; experiment: Antiproliferative activity against RANKL-differentiated mouse RAW264.7 cells assessed as reduction in cell viability at 100 uM after 72 hrs by CCK8 assay; type: functional, cell-based
[19] = system: Bone marrow cell; experiment: Induction of cell proliferation in C57BL mouse bone marrow cells at 30 nM after 72 hrs by crystal violet staining based assay; details: 0.03 µM
[20] = system: J774.A1; experiment: Antiproliferative activity against mouse J774A.1 cells assessed as change in cell proliferation at 100 uM after 72 hrs by crystal violet staining based assay relative to control; type: functional
[21] = molecular target: T2, Farnesyl pyrophosphate synthase (Homo sapiens, UniProt P14324); experiment: Inhibition of recombinant human C-terminal His6-tagged FPPS expressed in Escherichia coli BL21 using DMAPP and IPP as substrates pretreated for 15 mins followed by substrates addition and measured after 1 hr by colorimetric method
T2 sequence (P14324 whole entry): T1 sequence (whole entry)

[22] = system: RAW264.7; experiment: Antiproliferative activity against mouse RAW264.7 cells assessed as reduction in cell proliferation at 500 uM after 72 hrs by crystal violet staining based assay; type: functional
[23] = molecular target: T3, Geranylgeranyl pyrophosphate synthase (Homo sapiens) (UniProt O95749); experiment: Inhibition of recombinant human C-terminal His6-tagged GGPPS expressed in Escherichia coli BL21 at 1 to 10 uM using IPP and FPP as substrates pretreated for 15 mins followed by substrates addition and measured after 1 hr by colorimetric method relative to control
T3 sequence (whole entry): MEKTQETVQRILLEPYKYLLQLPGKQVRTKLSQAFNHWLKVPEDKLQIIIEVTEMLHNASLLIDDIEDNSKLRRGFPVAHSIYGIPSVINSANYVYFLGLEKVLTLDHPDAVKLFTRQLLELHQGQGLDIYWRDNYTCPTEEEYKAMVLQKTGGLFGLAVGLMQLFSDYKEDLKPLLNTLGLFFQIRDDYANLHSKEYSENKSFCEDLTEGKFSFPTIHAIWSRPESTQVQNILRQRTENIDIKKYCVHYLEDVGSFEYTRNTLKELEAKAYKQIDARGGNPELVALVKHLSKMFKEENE

[24] = system: MC3T3-E1; experiment: Induction of mineralization in mouse MC3T3-E1 cells at >500 nM after 10 to 15 days by alizarin red dye based assay; type: functional, cell-based
[25] = system: RAW264.7; experiment: Antiproliferative activity against mouse RAW264.7 cells assessed as change in cell proliferation at 100 uM after 72 hrs by crystal violet staining based assay relative to control; type: functional
[26] = system: MC3T3-E1; experiment: Induction of mineralization in mouse MC3T3-E1 cells at 30 to 50 nM after 10 to 15 days by alizarin red dye based assay; type: functional, cell-based
[27] = system: Bone marrow cell; experiment: Cytotoxicity against C57BL mouse bone marrow cells assessed as effect on cell proliferation at 0.03 to 500 uM after 72 hrs by crystal violet staining based assay
[28] = system: MG-63; experiment: Antiproliferative activity against human MG63 cells assessed as reduction in cell viability at 2.14 uM after 72 hrs by WST8 assay; type: functional, cell-based
[29] = system: PC-3; experiment: Antiproliferative activity against human PC3 cells assessed as reduction in cell viability at 2.14 uM after 72 hrs by WST8 assay; type: functional, cell-based
[30] = system: Bone marrow cell; experiment: Cytotoxicity against C57BL mouse bone marrow cells assessed as decrease in cell proliferation at 100 to 500 uM after 72 hrs by crystal violet staining based assay; set-up: scale not given: the % may be the effect or the level left
[31] = system: Bone marrow cell; experiment: Induction of cell proliferation in C57BL mouse bone marrow cells at 100 nM after 72 hrs by crystal violet staining based assay; details: 0.1 µM

## O=P(O)(O)C(O)(CNc1ncccn1)P(=O)(O)O
[1]
  Activity: Active
[2]
  Activity: inactive
[3]
  inhibition: Active
[4]
  Activity: inactive
[5]
  Activity: Active
[6]
  Activity: -29.682%
[7]
  Activity: Active
[8]
  Activity: inactive
[9]
  Activity: -16.295%
[10]
  Activity: inactive
[11]
  Activity: Active
[12]
  Activity: Active
[13]
  Activity: Active
[14]
  Activity: inactive
[15]
  inhibition: 68 to 79%
[16]
  Activity: 90%
[17]
  inhibition: 96%
[18]
  Activity: Active
[19]
  Activity: Toxic
[20]
  Activity: -31.512%
[21]
  IC50: 310 nM
[22]
  Activity: inactive
[23]
  inhibition: 68 to 79%
[24]
  Activity: inactive
[25]
  Activity: -47.365%
[26]
  Activity: Active

## NCCCC(O)(P(=O)(O)O)P(=O)(O)O [ALENDRONIC ACID]
[1]
  Activity: Active
[3]
  inhibition: Active
[5]
  Activity: inactive
[7]
  Activity: Active
[8]
  Activity: inactive
[10]
  Activity: inactive
[11]
  Activity: Active
[12]
  Activity: Active
[13]
  Activity: Active
[18]
  Activity: Active
[27]
  Activity: Non-Toxic
[24]
  Activity: inactive

## O=P(O)(O)C(O)(Cc1cccnc1)P(=O)(O)O [RISEDRONIC ACID]
[1]
  Activity: Active
[3]
  inhibition: Active
[5]
  Activity: inactive
[7]
  Activity: Active
[8]
  Activity: inactive
[10]
  Activity: inactive
[11]
  Activity: Active
[12]
  Activity: Active
[13]
  Activity: Active
[16]
  Activity: 87%
[18]
  Activity: Active
[27]
  Activity: Non-Toxic
[24]
  Activity: inactive

## CN[C@@H]1C[C@H]2O[C@@](C)([C@@H]1OC)n1c3ccccc3c3c4c(c5c6ccccc6n2c5c31)C(=O)NC4
[28]
  Activity: Active
[29]
  Activity: Active

## O.O=P(O)(O)C(O)(Cn1ccnc1)P(=O)(O)O [ZOLEDRONIC ACID]
[1]
  Activity: Active
[3]
  inhibition: Active
[5]
  Activity: Active
[6]
  Activity: -28.408%
[7]
  Activity: Active
[8]
  Activity: inactive
[9]
  Activity: -27.901%
[30]
  Activity: 20%
[31]
  Activity: Toxic
[10]
  Activity: inactive
[11]
  Activity: Active
[12]
  Activity: Active
[13]
  Activity: Active
[16]
  Activity: > 95%
[18]
  Activity: Active
[20]
  Activity: -60.657%
[24]
  Activity: inactive
[25]
  Activity: -54.523%
[26]
  Activity: Active
